Measurements taken from US7632818B2, “Method for treating conditions associated with the Metabolic Syndrome (Syndrome X)” (priority 2003, dated 2009).
Residues, ends and D or L forms follow the SMILES beside them.

Legend:
[1] = FEBS LET. 383:18 (1996); cited from earlier work
[2] = Forward looking example: Metabolic Syndrome patient with chronic environmental antigen stimulation; type: in vivo, human; conditions: sublingual once every two weeks, with diet, exercise, ACE Inhibitor, Fluconazole; over a year
From the text: The further application of the instant invention is illustrated by the following forward looking examples.
• A young person presents to their physician, on annual physical examination, with a weight gain of 50 pounds, is found to have high blood pressure, and reports vaginal pruritis. Over the past few years, they have lived in an area of major traffic congestion (near an oil refinery). The physician does a physical examination and discovers unusual black pigmented areas in their neck creases (acanthosis nigricans) and orders laboratory tests, including fasting and 2-hour blood glucose, serum triglycerides, serum insulin, a cholesterol profile, C-Reactive Protein, serum fibrinogen, and a vaginal smear for candidiasis. • They are found to have impaired glucose tolerance, elevated serum triglycerides, low HDL and high […] and high C-Reactive Protein and fibrinogen levels. Their vaginal smear is positive for candida albicans. • The physician knows that they are seeing a case of the Metabolic Syndrome which progresses to Diabetes Mellitus and Coronary Heart Disease. They prescribe a weight reduction diabetic diet, physical exercise, an ACE Inhibitor, and Fluconazole. […] They continue their diet and physical exercise and loses weight. They require less high blood pressure medication. The physician continues to monitor their cell-mediated immune function, blood glucose levels, lipid profile, and measures of inflammation, and adjusts their medications appropriately. • The patient continues to lose weight to reach their target weight, blood pressure is controlled, blood glucose is normalized, and their risk of diabetes mellitus and coronary heart disease is reduced.

Compound | Immunological activity in vitro [1] | Blood glucose [2] | C-Reactive Protein [2] | Cholesterol level [2]
N[C@@H](Cc1ccc(O)cc1)C(=O)NCC(=O)NCC(=O)O [YGG, L-tyrosylglycylglycine] (H-Tyr-Gly-Gly-OH) | immunologically active |  |  | 
N[C@@H](Cc1ccc(O)cc1)C(=O)NCC(=O)O [YG, L-tyrosylglycine] | immunologically active | changes toward normal | reduced | reduced
